Test results from paper PMC6545883 (Journal of the American Chemical Society, 2019).

Target: PtmO8 (Streptomyces platensis, UniProt A0A0A0UVL0)
Experiment: steady-state enzyme kinetics
Type: biochemical

Km: 34.2 ± 3.6 µM
Structure (SMILES): NC(=O)c1ccc[n+]([C@@H]2O[C@H](COP(=O)([O-])OP(=O)(O)OC[C@H]3O[C@@H](n4cnc5c(N)ncnc54)[C@H](O)[C@@H]3O)[C@@H](O)[C@H]2O)c1 [NAD^+]
